Literature values as cited in patent US20070254015A1, “Sanitizing surfaces” (Searete LLC, a limited liability corporation of the State …, priority 2006, published 2007).
Read-outs that look alike come from different tables or passages of the source.

Columns and labels:
[1] = tested on: Human Immunodeficiency Virus (HIV-1)
[2] = Table I, liquid sanitizing agents
[3] = Table II, liquid sanitizing agents for gloves

## CCO [Ethyl Alcohol]
Hepatitis B Virus; [2]
  Known Minimum Concentration by Volume for Immediately Sterilizing Hepatitis B Virus: 80%
Hepatitis B Virus; [3]
  Known Minimum Concentration by Volume for Immediately Sterilizing Hepatitis B Virus: 80%
[1]; [2]
  Known Minimum Concentration by Volume for Immediately Sterilizing Human Immunodeficiency Virus (HIV-1): 50%
[1]; [3]
  Known Minimum Concentration by Volume for Immediately Sterilizing Human Immunodeficiency Virus (HIV-1): 50%

## OO [Hydrogen Peroxide]
[1]; [2]
  Known Minimum Concentration by Volume for Immediately Sterilizing Human Immunodeficiency Virus (HIV-1): 0.3%
[1]; [3]
  Known Minimum Concentration by Volume for Immediately Sterilizing Human Immunodeficiency Virus (HIV-1): 0.3%

## CC(C)O [Isopropyl Alcohol]
Hepatitis B Virus; [2]
  Known Minimum Concentration by Volume for Immediately Sterilizing Hepatitis B Virus: 70%
Hepatitis B Virus; [3]
  Known Minimum Concentration by Volume for Immediately Sterilizing Hepatitis B Virus: 70%
[1]; [2]
  Known Minimum Concentration by Volume for Immediately Sterilizing Human Immunodeficiency Virus (HIV-1): 30%
[1]; [3]
  Known Minimum Concentration by Volume for Immediately Sterilizing Human Immunodeficiency Virus (HIV-1): 30%

## ethylphenyl-polyethylene glycol [NP-40]
[1]; [2]
  Known Minimum Concentration by Volume for Immediately Sterilizing Human Immunodeficiency Virus (HIV-1): 1%
[1]; [3]
  Known Minimum Concentration by Volume for Immediately Sterilizing Human Immunodeficiency Virus (HIV-1): 1%
